According to patent US12599672B2, “KRAS proteolysis targeting chimeras” (PAQ Therapeutics Inc., priority 2023, dated 2026):

How the values were obtained:
Format in all cases: cell-based
KRAS G12D = biological target: T1, KRAS G12D (Homo sapiens, UniProt P01116, G12D); test: KRAS G12D HiBit assay; conditions: AsPc-1-KRAS (G12D)-HiBit-KI cell, compound treatment for 24 hours; for DC50: absolute DC50
T1 construct: AsPc-1-KRAS (G12D)-HiBit-KI cell (Pharmaron); host or cells: AsPc-1-KRAS (G12D)-HiBit-KI cells (HiBiT knock-in at the endogenous KRAS locus)
T1 sequence (P01116 1-188 isoform P01116-2 G12D): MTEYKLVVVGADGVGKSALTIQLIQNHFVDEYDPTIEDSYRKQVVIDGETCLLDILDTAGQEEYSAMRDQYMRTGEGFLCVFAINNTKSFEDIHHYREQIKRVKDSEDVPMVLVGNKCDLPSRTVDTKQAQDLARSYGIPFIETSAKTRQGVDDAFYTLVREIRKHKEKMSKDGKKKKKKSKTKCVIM
How it was run: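 HiBiT luminescence, detected by adding lytic buffer, substrate and LgBiT protein, served as the KRAS G12D read-out. Compounds, serially diluted 3-fold over 10 points from 0.3 mM DMSO stock, were on cells for 24 h; percent inhibition normalized to cells given 0.1% DMSO only.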

KRAS G12V = biological target: T2, KRAS G12V (Homo sapiens, UniProt P01116, G12V); test: KRAS G12V HiBit assay; conditions: SW620-KRAS (G12V)-HiBit-KI cells, compound treatment for 24 hours, class symbols
T2 construct: SW620-KRAS (G12V)-HiBit-KI cell (Pharmaron); host or cells: SW620-KRAS (G12V)-HiBit-KI cells (HiBiT knock-in at the endogenous KRAS locus)
T2 sequence (P01116 1-188 isoform P01116-2 G12V): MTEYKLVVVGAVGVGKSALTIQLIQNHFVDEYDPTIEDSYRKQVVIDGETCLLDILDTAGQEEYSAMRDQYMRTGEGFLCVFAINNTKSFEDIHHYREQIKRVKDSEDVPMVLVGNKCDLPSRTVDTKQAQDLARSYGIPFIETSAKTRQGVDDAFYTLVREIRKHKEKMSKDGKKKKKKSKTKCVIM
How it was run: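 Luminescence from lytic Nano-Glo HiBiT detection with LgBiT read KRAS G12V levels after 24 h compound exposure. Dilutions were 10-point, 3-fold, from a 0.3 mM DMSO stock. Degradation activity was normalised to cells given 0.1% DMSO alone.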

KRAS = biological target: T3, KRAS (Homo sapiens, UniProt P01116); test: KRASamp MSD assay; conditions: KE39 (KRAS amplified) cells, treated with test compounds for 24 hr, MSD readout of KRAS degradation
T3 construct: endogenous in cells; host or cells: KE39 (KRAS amplified) cells
T3 sequence (P01116 1-188 isoform P01116-2): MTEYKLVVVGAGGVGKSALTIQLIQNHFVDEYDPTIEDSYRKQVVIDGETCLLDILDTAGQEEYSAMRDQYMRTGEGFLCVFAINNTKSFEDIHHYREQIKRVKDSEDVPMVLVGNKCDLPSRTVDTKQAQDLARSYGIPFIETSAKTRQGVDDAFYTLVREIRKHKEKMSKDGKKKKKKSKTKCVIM
How it was run: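 Degradation DC50 derived by curve fitting, with KRAS levels quantified by MSD electrochemiluminescence (capture/detection antibodies, recombinant WT KRAS standard). Lysates prepared from KE39 cells (KRAS amplified) exposed to test compounds for 24 hr.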

Compound | DC50 (KRAS G12D; class symbols) | DC50 (KRAS G12V) | DC50 (KRAS) | Dmax (KRAS G12D; class symbols) | DC50 (KRAS G12D; numeric bounds given in place of class symbols)
Cn1c(=O)n(C2CCC(=O)NC2=O)c2ccc(C3CCN(C4CC5(CCN(C(=O)OC[C@@H]6CC[C@]7(COc8nc(N9CCC[C@@](C)(O)C9)c9cnc(-c%10cc(O)cc%11ccc(F)cc%10%11)cc9n8)CCCN67)CC5)C4)CC3)cc21 (stereo partly drawn) [Compound 474, ((3S,7aS)-7a-(((7-(7-fluoro-3-hydroxynaphthalen-1-yl)-4-((R)-3-hydroxy-3-methylpiperidin-1-yl)pyrido[4,3-d]pyrimidin-2-yl)oxy)methyl)hexahydro-1H-pyrrolizin-3-yl)methyl 2-(4-(1-(2,6-dioxopiperidin-3-yl)-3-methyl-2-oxo-2,3-dihydro-1H-benzo[d]imidazol-5-yl)piperidin-1-yl)-7-azaspiro[3.5]nonane-7-carboxylate] | < 100 nM | < 10 nM | < 1 nM | – | –
C#Cc1c(F)ccc2cc(O)cc(-c3ncc4c(N5CCC[C@@](C)(O)C5)nc(OC[C@@]56CCCN5[C@H](COC(=O)N5CC7(CC(CN8CCC(c9ccc%10c(c9)n(C)c(=O)n%10C9CCC(=O)NC9=O)CC8)C7)C5)CC6)nc4c3F)c12 (stereo partly drawn) [Compound 418, ((3S,7aS)-7a-(((7-(8-ethynyl-7-fluoro-3-hydroxynaphthalen-1-yl)-8-fluoro-4-((R)-3-hydroxy-3-methylpiperidin-1-yl)pyrido[4,3-d]pyrimidin-2-yl)oxy)methyl)hexahydro-1H-pyrrolizin-3-yl)methyl 6-((4-(1-(2,6-dioxopiperidin-3-yl)-3-methyl-2-oxo-2,3-dihydro-1H-benzo[d]imidazol-5-yl)piperidin-1-yl)methyl)-2-azaspiro[3.3]heptane-2-carboxylate] | < 100 nM | < 10 nM | 1 to 10 nM | – | –
C#Cc1c(F)ccc2cc(O)cc(-c3ncc4c(N5CCOCC5)nc(OC[C@@]56CCCN5[C@H](COC(=O)N5CCC(CN7CCC(c8ccc9c(c8)n(C)c(=O)n9C8CCC(=O)NC8=O)CC7)CC5)CC6)nc4c3F)c12 (stereo partly drawn) [Compound 125, ((3S,7aS)-7A-(((7-(8-Ethynyl-7-fluoro-3-hydroxynaphthalen-1-yl)-8-fluoro-4-morpholinopyrido[4,3-d]pyrimidin-2-yl)oxy)methyl)hexahydro-1H-pyrrolizin-3-yl)methyl 4-((4-(1-(2,6-dioxopiperidin-3-yl)-3-methyl-2-oxo-2,3-dihydro-1H-benzo[d]imidazol-5-yl)piperidin-1-yl)methyl) piperidine-1-carboxylate] | < 100 nM | < 10 nM | < 1 nM | > 50% | –
C#Cc1c(F)ccc2cc(O)cc(-c3ncc4c(N5CCC[C@@](C)(O)C5)nc(OC[C@@]56CCCN5[C@H](COC(=O)N5CCC(OC7CCN(c8ccc9c(c8)n(C)c(=O)n9C8CCC(=O)NC8=O)CC7)CC5)CC6)nc4c3F)c12 (stereo partly drawn) [Compound 155, ((3S,7aS)-7a-(((7-(8-Ethynyl-7-fluoro-3-hydroxynaphthalen-1-yl)-8-fluoro-4-((R)-3-hydroxy-3-methylpiperidin-1-yl)pyrido[4,3-d]pyrimidin-2-yl)oxy)methyl)hexahydro-1H-pyrrolizin-3-yl)methyl 4-((1-(1-(2,6-dioxopiperidin-3-yl)-3-methyl-2-oxo-2,3-dihydro-1H-benzo[d]imidazol-5-yl)piperidin-4-yl)oxy)piperidine-1-carboxylate] | < 100 nM | < 10 nM | < 1 nM | – | –
C#Cc1c(F)ccc2cc(O)cc(-c3ncc4c(N5CCC[C@@](C)(O)C5)nc(OC[C@@]56CCCN5[C@H](COC(=O)NC5CCN(C7CCN(c8ccc9c(c8)n(C)c(=O)n9C8CCC(=O)NC8=O)CC7)CC5)CC6)nc4c3F)c12 (stereo partly drawn) [Compound 324, ((3S,7aS)-7a-(((7-(8-ethynyl-7-fluoro-3-hydroxynaphthalen-1-yl)-8-fluoro-4-((R)-3-hydroxy-3-methylpiperidin-1-yl)pyrido[4,3-d]pyrimidin-2-yl)oxy)methyl)hexahydro-1H-pyrrolizin-3-yl)methyl (1′-(1-(2,6-dioxopiperidin-3-yl)-3-methyl-2-oxo-2,3-dihydro-1H-benzo[d]imidazol-5-yl)-[1,4′-bipiperidin]-4-yl)carbamate] | – | > 100 nM | ≥ 10 nM | – | > 100 nM
